According to US8846933B2, “N-link hydroxamic acid derivatives useful as antibacterial agents” (Pfizer Inc., priority 2009, dated 2014):

Key:
[1] = test system: Pseudomonas aeruginosa UI-18: Wild-type (PA-7); experiment: MIC determination (CLSI), strain PA-7; assay type: cell-based; details: strain PA-7, unit assumed
Procedure, shortened: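 MIC determined by broth dilution per CLSI M7-A7 guidelines with M100-S18 interpretive standards. Test organism: wild-type Pseudomonas aeruginosa UI-18, designated PA-7.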

[2] = test system: Escherichia coli EC-1: VOGEL, mouse virulent; experiment: MIC determination (CLSI), strain EC-1; assay type: cell-based; details: strain EC-1, unit assumed
Procedure, shortened: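 The mouse-virulent VOGEL isolate of E. coli, EC-1, served as test organism. Minimum inhibitory concentration was measured by CLSI dilution methodology (M7-A7; M100-S18 standards).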

[3] = generated in the same manner as in Table 4

Structure (SMILES) | PA-7 (MIC) [1] [µg/mL] | EC-1 (MIC) [2] [µg/mL] | PA-7 (MIC) [1, 3] [µg/mL] | EC-1 (MIC) [2, 3] [µg/mL]
CC(CCn1ccc(-c2ccc(OCCO)cc2Cl)cc1=O)(C(=O)NO)S(C)(=O)=O (stereo not shown) [Example 232, 4-{4-[2-chloro-4-(2-hydroxyethoxy)phenyl]-2-oxopyridin-1(2H)-yl}-N-hydroxy-2-methyl-2-(methylsulfonyl)butanamide] | 16 | 16 | – | –
Cc1cc(-c2ccn(CCC(C)(C(=O)NO)S(C)(=O)=O)c(=O)c2)ccc1F (stereo not shown) [Example 193, 4-[4-(4-fluoro-3-methylphenyl)-2-oxopyridin-1(2H)-yl]-N-hydroxy-2-methyl-2-(methylsulfonyl)butanamide] | 2 | 2 | – | –
Cc1cc(C#N)ccc1-c1ccn(CC[C@](C)(C(=O)NO)S(C)(=O)=O)c(=O)c1 [Example 472] | 8 | 32 | – | –
CC(CCn1ccc(-c2ccc3cc(O)ccc3c2)cc1=O)(C(=O)NO)S(C)(=O)=O (stereo not shown) [Example 258, N-hydroxy-4-[4-(6-hydroxy-2-naphthyl)-2-oxopyridin-1(2H)-yl]-2-methyl-2-(methylsulfonyl)butanamide] | 2 | 1 | – | –
C[C@@](CCn1ccc(-c2ccc(SCC#N)cc2)cc1=O)(C(=O)NO)S(C)(=O)=O [Example 355, (2R)-4-[4-{4-[(cyanomethyl)thio]phenyl}-2-oxopyridin-1(2H)-yl]-N-hydroxy-2-methyl-2-(methylsulfonyl)butanamide] | 2 | 4 | – | –
Cc1nnc(C)n1-c1ccc(-c2ccn(CC[C@](C)(C(=O)NO)S(C)(=O)=O)c(=O)c2)cc1 [Example 382, (2R)-4-{4-[4-(3,5-dimethyl-4H-1,2,4-triazol-4-yl)phenyl]-2-oxopyridin-1(2H)-yl}-N-hydroxy-2-methyl-2-(methylsulfonyl)butanamide] | > 64 | > 64 | – | –
Cc1c(Cl)cccc1-c1ccn(CCC(C)(C(=O)NO)S(C)(=O)=O)c(=O)c1 (stereo not shown) [Example 266, 4-[4-(3-chloro-2-methylphenyl)-2-oxopyridin-1(2H)-yl]-N-hydroxy-2-methyl-2-(methylsulfonyl)butanamide] | 4 | 4 | – | –
CC(CCn1ccc(-c2ccc(F)cc2)cc1=O)(C(=O)NO)S(C)(=O)=O (stereo not shown) [Example 192, 4-[4-(4-fluorophenyl)-2-oxopyridin-1(2H)-yl]-N-hydroxy-2-methyl-2-(methylsulfonyl)butanamide] | 2 | 8 | – | –
CC(C)(C#N)c1ccc(-c2ccn(CC[C@](C)(C(=O)NO)S(C)(=O)=O)c(=O)c2)cc1 [Example 362, (2R)-4-{4-[4-(1-cyano-1-methylethyl)phenyl]-2-oxopyridin-1(2H)-yl}-N-hydroxy-2-methyl-2-(methylsulfonyl)butanamide] | 4 | 16 | – | –
Cc1ccc(-c2ccn(CCC(C)(C(=O)NO)S(C)(=O)=O)c(=O)c2)cc1 (stereo not shown) [Example 190, N-hydroxy-2-methyl-4-[4-(4-methylphenyl)-2-oxopyridin-1(2H)-yl]-2-(methylsulfonyl)butanamide] | 1 | 1 | – | –
Cc1cccc(-c2ccn(CC[C@](C)(C(=O)NO)S(C)(=O)=O)c(=O)c2)c1F [Example 323, (2R)-4-[4-(2-fluoro-3-methylphenyl)-2-oxopyridin-1(2H)-yl]-N-hydroxy-2-methyl-2-(methylsulfonyl)butanamide] | 0.5 | 0.25 | – | –
C[C@@](CCn1ccc(-c2ccc(-c3cc(CO)no3)cc2)cc1=O)(C(=O)NO)S(C)(=O)=O [Example 408, (2R)-N-hydroxy-4-[4-{4-[3-(hydroxymethyl)isoxazol-5-yl]phenyl}-2-oxopyridin-1(2H)-yl]-2-methyl-2-(methylsulfonyl)butanamide] | 8 | 8 | – | –
COc1ccnc2ccc(-c3ccn(CC[C@](C)(C(=O)NO)S(C)(=O)=O)c(=O)c3)cc12 [Example 482] | > 64 | > 64 | – | –
CC1(O)CCC(Oc2ccc(-c3ccn(CC[C@](C)(C(=O)NO)S(C)(=O)=O)c(=O)c3)c(F)c2)CC1 (stereo partly drawn) [Example 326, (2R)-4-[4-{2-fluoro-4-[(4-hydroxy-4-methylcyclohexyl)oxy]phenyl}-2-oxopyridin-1(2H)-yl]-N-hydroxy-2-methyl-2-(methylsulfonyl)butanamide] | 4 | 0.5 | – | –
COc1cc(-c2ccn(CC[C@](C)(C(=O)NO)S(C)(=O)=O)c(=O)c2)c(F)cc1C#N [Example 477] | 32 | 64 | – | –
CCCc1ccc(-c2ccn(CC[C@](C)(C(=O)NO)S(C)(=O)=O)c(=O)c2)cc1 [Example 465, (2R)-N-hydroxy-2-methyl-2-(methylsulfonyl)-4-[2-oxo-4-(4-propylphenyl)pyridin-1(2H)-yl]butanamide] | 0.5 | 0.125 | – | –

Structure (SMILES) | PA-7 (MIC) [1] [µg/mL] | EC-1 (MIC) [2] [µg/mL] | PA-7 (MIC) [1, 3] [µg/mL] | EC-1 (MIC) [2, 3] [µg/mL]
C[C@@](CCn1ccc(-c2ccc(-n3ncc(O)n3)cc2)cc1=O)(C(=O)NO)S(C)(=O)=O [Example 407, (2R)-N-hydroxy-4-{4-[4-(4-hydroxy-2H-1,2,3-triazol-2-yl)phenyl]-2-oxopyridin-1(2H)-yl}-2-methyl-2-(methylsulfonyl)butanamide] | 32 | 16 | – | –
CC(CCn1ccc(-c2ccc(OCCCN3CCOCC3)c(F)c2)cc1=O)(C(=O)NO)S(C)(=O)=O (stereo not shown) [Example 223, 4-{4-[3-fluoro-4-(3-morpholin-4-ylpropoxy)phenyl]-2-oxopyridin-1(2H)-yl}-N-hydroxy-2-methyl-2-(methylsulfonyl)butanamide] | 8 | 4 | – | –
C[C@@](CCn1ccc(-c2ccc(-c3ncc[nH]3)cc2)cc1=O)(C(=O)NO)S(C)(=O)=O [Example 367, (2R)-N-hydroxy-4-{4-[4-(1H-imidazol-2-yl)phenyl]-2-oxopyridin-1(2H)-yl}-2-methyl-2-(methylsulfonyl)butanamide] | > 64 | 8 | – | –
Cc1cnc2ccc(-c3ccn(CCC(C)(C(=O)NO)S(C)(=O)=O)c(=O)c3)cc2c1 (stereo not shown) [Example 301, N-hydroxy-2-methyl-4-[4-(3-methylquinolin-6-yl)-2-oxopyridin-1(2H)-yl]-2-(methylsulfonyl)butanamide] | 16 | 4 | – | –
CC(CCn1ccc(-c2ccc(-c3ccc(S(N)(=O)=O)cc3)cc2)cc1=O)(C(=O)NO)S(C)(=O)=O (stereo not shown) [Example 278, 4-{4-[4′-(aminosulfonyl)biphenyl-4-yl]-2-oxopyridin-1(2H)-yl}-N-hydroxy-2-methyl-2-(methylsulfonyl)butanamide] | 16 | 2 | – | –
Cc1cccc(-c2ccn(CCC(C)(C(=O)NO)S(C)(=O)=O)c(=O)c2)c1 (stereo not shown) [Example 178, N-hydroxy-2-methyl-4-[4-(3-methylphenyl)-2-oxopyridin-1(2H)-yl]-2-(methylsulfonyl)butanamide] | – | – | 2 | 4
Cc1cc(SCC#N)ccc1-c1ccn(CC[C@](C)(C(=O)NO)S(C)(=O)=O)c(=O)c1 [Example 356, (2R)-4-[4-{4-[(cyanomethyl)thio]-2-methylphenyl}-2-oxopyridin-1(2H)-yl]-N-hydroxy-2-methyl-2-(methylsulfonyl)butanamide] | 4 | 16 | – | –
CC(CCn1ccc(-c2cc(O)ccc2Cl)cc1=O)(C(=O)NO)S(C)(=O)=O (stereo not shown) [Example 204, 4-[4-(2-chloro-5-hydroxyphenyl)-2-oxopyridin-1(2H)-yl]-N-hydroxy-2-methyl-2-(methylsulfonyl)butanamide] | > 64 | 64 | – | –
C[C@@](CCn1ccc(-c2ccc(CO)nc2)cc1=O)(C(=O)NO)S(C)(=O)=O [Example 418, (2R)-N-hydroxy-4-[6-(hydroxymethyl)-2′-oxo-3,4′-bipyridin-1′(2′H)-yl]-2-methyl-2-(methylsulfonyl)butanamide] | 64 | > 64 | – | –
CC(CCn1ccc(-c2cncc3ccccc23)cc1=O)(C(=O)NO)S(C)(=O)=O (stereo not shown) [Example 109, N-hydroxy-4-(4-isoquinolin-4-yl-2-oxopyridin-1(2H)-yl)-2-methyl-2-(methylsulfonyl)butanamide] | – | – | > 64 | > 64
CN(C)S(=O)(=O)c1ccc(-c2ccn(CCC(C)(C(=O)NO)S(C)(=O)=O)c(=O)c2)cc1 (stereo not shown) [Example 106, 4-[4-{4-[(dimethylamino)sulfonyl]phenyl}-2-oxopyridin-1(2H)-yl]-N-hydroxy-2-methyl-2-(methylsulfonyl)butanamide] | – | – | 64 | > 64
C[C@@](CCn1ccc(-c2ccc(-n3ccnc3)cc2)cc1=O)(C(=O)NO)S(C)(=O)=O [Example 388, (2R)-N-hydroxy-4-{4-[4-(1H-imidazol-1-yl)phenyl]-2-oxopyridin-1(2H)-yl}-2-methyl-2-(methylsulfonyl)butanamide] | 16 | 16 | – | –
COc1ccc(OC)c(-c2ccn(CCC(C)(C(=O)NO)S(C)(=O)=O)c(=O)c2)c1 (stereo not shown) [Example 195, 4-[4-(2,5-dimethoxyphenyl)-2-oxopyridin-1(2H)-yl]-N-hydroxy-2-methyl-2-(methylsulfonyl)butanamide] | > 64 | > 64 | – | –
CC(CCn1ccc(-c2ccc(OCCN3CCCC3)cc2)cc1=O)(C(=O)NO)S(C)(=O)=O (stereo not shown) [Example 74] | – | – | > 64 | > 64
CC(CCn1ccc(-c2ccc(C#N)s2)cc1=O)(C(=O)NO)S(C)(=O)=O (stereo not shown) [Example 149, 4-[4-(5-cyano-2-thienyl)-2-oxopyridin-1(2H)-yl]-N-hydroxy-2-methyl-2-(methylsulfonyl)butanamide] | – | – | 16 | 16
CC(CCn1ccc(-c2ccc3cc(OCCO)ccc3c2)cc1=O)(C(=O)NO)S(C)(=O)=O (stereo not shown) [Example 273, N-hydroxy-4-{4-[6-(2-hydroxyethoxy)-2-naphthyl]-2-oxopyridin-1(2H)-yl}-2-methyl-2-(methylsulfonyl)butanamide] | 4 | 0.5 | – | –
